Results reported in ChEMBL document CHEMBL1145539 (2007).
Converted amounts (≈) assume the structure as drawn.

Key:
Staphylococcus aureus [1] = assay: Antimicrobial activity against methicillin-susceptible Staphylococcus aureus by time-kill methodology
Staphylococcus aureus [2] = assay: Antimicrobial activity against community-acquired methicillin-resistant Staphylococcus aureus Panton-Valentine leukocidin negative by time-kill methodology; format: functional
Staphylococcus aureus [3] = assay: Antimicrobial activity against vancomycin-intermediate Staphylococcus aureus by time-kill methodology; format: functional
Staphylococcus aureus [4] = assay: Antimicrobial activity against vancomycin-resistant Staphylococcus aureus by time-kill methodology; format: functional
Staphylococcus aureus [5] = assay: Antimicrobial activity against nosocomially-acquired methicillin-resistant Staphylococcus aureus by time-kill methodology; format: functional
Staphylococcus aureus [6] = assay: Antimicrobial activity against community-acquired methicillin-resistant Staphylococcus aureus Panton-Valentine leukocidin positive by time-kill methodology; format: functional

Row | Compound | MIC (Staphylococcus aureus [1]) [µg/mL] | MIC (Staphylococcus aureus [2]) [µg/mL] | MIC (Staphylococcus aureus [3]) [µg/mL] | MIC (Staphylococcus aureus [4]) [µg/mL] | MIC (Staphylococcus aureus [5]) [µg/mL] | MIC (Staphylococcus aureus [6]) [µg/mL]
1 | CCCCCCCCCC(=O)N[C@@H](Cc1c[nH]c2ccccc12)C(=O)N[C@H](CC(N)=O)C(=O)N[C@@H](CC(=O)O)C(=O)N[C@@H]1C(=O)NCC(=O)N[C@@H](CCCN)C(=O)N[C@@H](CC(=O)O)C(=O)N[C@H](C)C(=O)N[C@@H](CC(=O)O)C(=O)NCC(=O)N[C@H](CO)C(=O)N[C@@H]([C@H](C)CC(=O)O)C(=O)N[C@@H](CC(=O)c2ccccc2N)C(=O)O[C@@H]1C | 0.25 (≈ 0.154 µM) | 0.5 (≈ 0.309 µM) | 2 (≈ 1.23 µM) | 0.25 (≈ 0.154 µM) | 0.25 (≈ 0.154 µM) | 0.5 (≈ 0.309 µM)
2 | CO[C@H]1/C=C/O[C@@]2(C)Oc3c(C)c(O)c4c(O)c(c(/C=N/N5CCN(C)CC5)c(O)c4c3C2=O)NC(=O)/C(C)=C\C=C\[C@H](C)[C@H](O)[C@@H](C)[C@@H](O)[C@@H](C)[C@H](OC(C)=O)[C@@H]1C [RIFAMPIN] | 0.008 (≈ 0.00972 µM) | 0.016 (≈ 0.0194 µM) | 0.016 (≈ 0.0194 µM) | 0.008 (≈ 0.00972 µM) | 0.004 (≈ 0.00486 µM) | 0.004 (≈ 0.00486 µM)
3 | GENTAMICIN | – | 1 | 1 | 64 | 1 | 1
